Key:
HT-29 = test: Cytotoxicity against human HT-29 cells assessed as reduction in cell viability incubated for 96 hrs by SRB assay; format: functional, cell-based; conditions: HT-29, 96 h
A-375 = test: Cytotoxicity against human A375 cells assessed as reduction in cell viability incubated for 96 hrs by SRB assay; format: functional, cell-based; conditions: A-375, 96 h
NIH3T3 = test: Cytotoxicity against mouse NIH/3T3 cells assessed as reduction in cell viability incubated for 96 hrs by SRB assay; format: cell-based; conditions: NIH3T3, 96 h
FaDu = test: Cytotoxicity against human FADU cells assessed as reduction in cell viability incubated for 96 hrs by SRB assay; format: functional, cell-based
MCF7 = test: Cytotoxicity against human MCF7 cells assessed as reduction in cell viability incubated for 96 hrs by SRB assay; format: functional, cell-based; conditions: MCF7, 96 h
A2780 = test: Cytotoxicity against human A2780 cells assessed as reduction in cell viability incubated for 96 hrs by SRB assay; format: functional, cell-based; conditions: A2780, 96 h

SMILES	EC50 (HT-29) [µM]	EC50 (A-375) [µM]	EC50 (NIH3T3) [µM]	EC50 (FaDu) [µM]	EC50 (MCF7) [µM]	EC50 (A2780) [µM]
C=C(C)[C@@H]1CC[C@]2(CO)CC[C@]3(C)[C@H](CC[C@@H]4[C@@]5(C)CC[C@H](OC(C)=O)C(C)(C)[C@@H]5CC[C@]43C)[C@@H]12	> 30	> 30	> 30	> 30		
CC(=O)O[C@H]1CC[C@]2(C)[C@H]3CC=C4[C@@H]5[C@@H](C)[C@H](C)CC[C@]5(C(=O)NCCN)CC[C@@]4(C)[C@]3(C)CC[C@H]2C1(C)C	1.8		2.6	3.7	2	2.3
CC(=O)O[C@H]1CC[C@]2(C)[C@H]3CC=C4[C@@H]5[C@@H](C)[C@H](C)CC[C@]5(C(=O)N5CCNCC5)CC[C@@]4(C)[C@]3(C)CC[C@H]2C1(C)C				1.9		
CC(=O)O[C@H]1CC[C@]2(C)[C@H]3CC=C4[C@@H]5CC(C)(C)CC[C@]5(C(=O)N5CCNCC5)CC[C@@]4(C)[C@]3(C)CC[C@H]2C1(C)C				1.6		
C=C(C)[C@@H]1CC[C@]2(C(=O)N3CCNCC3)CC[C@]3(C)[C@H](CC[C@@H]4[C@@]5(C)CC[C@H](OC(C)=O)C(C)(C)[C@@H]5CC[C@]43C)[C@@H]12				1.3		
CC(=O)O[C@H]1CC[C@]2(C)[C@H]3CC=C4[C@@H]5CC(C)(C)CC[C@]5(C(=O)NCCN)CC[C@@]4(C)[C@]3(C)CC[C@H]2C1(C)C	2		2.1	4.3	1.7	3.1
CC(=O)O[C@H]1CC[C@]2(C)[C@H]3CC=C4[C@@H]5[C@@H](C)[C@H](C)CC[C@]5(C(=O)N5CCN(C(=O)CCC6=[N+]7C(=Cc8c(C)cc(C)n8[B-]7(F)F)C=C6)CC5)CC[C@@]4(C)[C@]3(C)CC[C@H]2C1(C)C	> 30	21.6	> 30	> 30	24.4	> 30
C=C(C)[C@@H]1CC[C@]2(C(=O)NCCNC(=O)CCC3=[N+]4C(=Cc5c(C)cc(C)n5[B-]4(F)F)C=C3)CC[C@]3(C)[C@H](CC[C@@H]4[C@@]5(C)CC[C@H](OC(C)=O)C(C)(C)[C@@H]5CC[C@]43C)[C@@H]12	> 30	> 30	> 30	> 30	11.3	> 30
C=C(C)[C@@H]1CC[C@]2(C(=O)NCCN)CC[C@]3(C)[C@H](CC[C@@H]4[C@@]5(C)CC[C@H](OC(C)=O)C(C)(C)[C@@H]5CC[C@]43C)[C@@H]12	1		1.4	1.2	1.3	1.4
C=C(C)[C@@H]1CC[C@]2(C(=O)N3CCN(C(=O)CCC4=[N+]5C(=Cc6c(C)cc(C)n6[B-]5(F)F)C=C4)CC3)CC[C@]3(C)[C@H](CC[C@@H]4[C@@]5(C)CC[C@H](OC(C)=O)C(C)(C)[C@@H]5CC[C@]43C)[C@@H]12	> 30	> 30	> 30	> 30	> 30	> 30
CC(=O)O[C@H]1CC[C@]2(C)[C@H]3C(=O)C=C4[C@@H]5C[C@@](C)(C(=O)NCCN)CC[C@]5(C)CC[C@@]4(C)[C@]3(C)CC[C@H]2C1(C)C	4.3		4.3	5.7	3.2	2
CC(=O)O[C@H]1CC[C@]2(C)[C@H]3C(=O)C=C4[C@@H]5C[C@@](C)(C(=O)N6CCN(C(=O)CCC7=[N+]8C(=Cc9c(C)cc(C)n9[B-]8(F)F)C=C7)CC6)CC[C@]5(C)CC[C@@]4(C)[C@]3(C)CC[C@H]2C1(C)C	> 30	8.3	9.1	8.6	7.9	7.8
CC(=O)O[C@H]1CC[C@]2(C)[C@H]3C(=O)C=C4[C@@H]5C[C@@](C)(C(=O)N6CCNCC6)CC[C@]5(C)CC[C@@]4(C)[C@]3(C)CC[C@H]2C1(C)C	4.4		8.7	8.7	8.4	8.2
CC(=O)O[C@H]1CC[C@]2(C)[C@H]3CC=C4[C@@H]5CC(C)(C)CC[C@]5(C(=O)NCCNC(=O)CCC5=[N+]6C(=Cc7c(C)cc(C)n7[B-]6(F)F)C=C5)CC[C@@]4(C)[C@]3(C)CC[C@H]2C1(C)C	> 30	4.3	3.4	7	2.3	10.3
C=C(C)[C@@H]1CC[C@]2(COC(=O)CCC3=[N+]4C(=Cc5c(C)cc(C)n5[B-]4(F)F)C=C3)CC[C@]3(C)[C@H](CC[C@@H]4[C@@]5(C)CC[C@H](OC(C)=O)C(C)(C)[C@@H]5CC[C@]43C)[C@@H]12	> 30	> 30	> 30	> 30	28.9	> 30
CC(=O)O[C@H]1CC[C@]2(C)[C@H]3C(=O)C=C4[C@@H]5C[C@@](C)(C(=O)NCCNC(=O)CCC6=[N+]7C(=Cc8c(C)cc(C)n8[B-]7(F)F)C=C6)CC[C@]5(C)CC[C@@]4(C)[C@]3(C)CC[C@H]2C1(C)C	26.5	23.9	> 30	> 30	7.2	18.4
Cc1cc(C)n2c1C=C1C=CC(CCC(=O)O)=[N+]1[B-]2(F)F	> 30	> 30	> 30	> 30	> 30	> 30
CC(=O)O[C@H]1CC[C@]2(C)[C@H]3CC=C4[C@@H]5CC(C)(C)CC[C@]5(C(=O)N5CCN(C(=O)CCC6=[N+]7C(=Cc8c(C)cc(C)n8[B-]7(F)F)C=C6)CC5)CC[C@@]4(C)[C@]3(C)CC[C@H]2C1(C)C	> 30	29.8	> 30	> 30	> 30	> 30
CC(=O)O[C@H]1CC[C@]2(C)[C@H]3CC=C4[C@@H]5[C@@H](C)[C@H](C)CC[C@]5(C(=O)NCCNC(=O)CCC5=[N+]6C(=Cc7c(C)cc(C)n7[B-]6(F)F)C=C5)CC[C@@]4(C)[C@]3(C)CC[C@H]2C1(C)C	> 30	4	3	5.7	2.2	8.7
C=C(C)[C@@H]1CC[C@]2(COC(C)=O)CC[C@]3(C)[C@H](CC[C@@H]4[C@@]5(C)CC[C@H](OC(=O)CCC6=[N+]7C(=Cc8c(C)cc(C)n8[B-]7(F)F)C=C6)C(C)(C)[C@@H]5CC[C@]43C)[C@@H]12	3.1		9.2	4.7	4.3	2.7
C=C(C)[C@@H]1CC[C@]2(COC(C)=O)CC[C@]3(C)[C@H](CC[C@@H]4[C@@]5(C)CC[C@H](OC(C)=O)C(C)(C)[C@@H]5CC[C@]43C)[C@@H]12 [BETULIN DIACETATE]	> 30	> 30	> 30	> 30	> 30	> 30
C=C(C)[C@@H]1CC[C@]2(CO)CC[C@]3(C)[C@H](CC[C@@H]4[C@@]5(C)CC[C@H](O)C(C)(C)[C@@H]5CC[C@]43C)[C@@H]12 [BETULIN]	> 30	> 30	> 30	> 30	> 30	> 30
CC1(C)[C@@H](O)CC[C@]2(C)[C@H]3C(=O)C=C4[C@@H]5C[C@@](C)(C(=O)O)CC[C@]5(C)CC[C@@]4(C)[C@]3(C)CC[C@@H]12 [ENOXOLONE]				> 30		
CC1(C)CC[C@]2(C(=O)O)CC[C@]3(C)C(=CC[C@@H]4[C@@]5(C)CC[C@H](O)C(C)(C)[C@@H]5CC[C@]43C)[C@@H]2C1 [OLEANOLIC_ACID]				> 30		> 30
C[C@H]1[C@H](C)CC[C@]2(C(=O)O)CC[C@]3(C)C(=CC[C@@H]4[C@@]5(C)CC[C@H](O)C(C)(C)[C@@H]5CC[C@]43C)[C@H]12 [URSOLIC ACID]			13.1			
